The record followed here is US7432300B2, “Gossypol co-crystals and the use thereof” (The Regents of the University of Michigan, priority 2004, dated 2008).

This data set is classed as physicochemical. On the procedure:
(−)-Gossypol acetic acid co-crystals were yellow or pale yellow and needle shaped. […] The co-crystals were insoluble in water. The uncorrected melting point of the co-crystals was determined to be 178-180° C. using a Mel-Temp apparatus.

The structures appear in SMILES notation.

For `Cc1cc2c(C(C)C)c(O)c(O)c(C=O)c2c(O)c1-c1c(C)cc2c(C(C)C)c(O)c(O)c(C=O)c2c1O` [(−)-Gossypol acetic acid co-crystals, (−)-gossypol acetic acid], the solubility in acetone result is “readily soluble”, the solubility in chloroform entry was “slightly soluble”, the solubility in ethanol result is given as “slightly soluble” and the solubility in ether result is given as “readily soluble”. For the same compound, the solubility in petroleum result is on record as “sparsely soluble” and the solubility in water entry was “insoluble”.
